Experimental data reported in paper PMC9106035, “Synthesis, X-ray Structure and Biological Studies of New Self-Assembled Cu(II) Complexes Derived from s-Triazine Schiff Base Ligand” (Molecules, 2022).
In brackets after ≈: the same amount, converted by molar mass. Values belong to the molecule of their own block, whether it stands above or below them.

What was measured:
[1] = DPPH radical scavenging assay; format: biochemical; settings: for IC50 (DPPH scavenging): antioxidant activity
Experimental: The studied Cu(II) complexes and the free ligands were assessed for their antioxidant activity levels using an α,α-diphenyl-β-picrylhydrazyl (DPPH) scavenging assay, and the results are given in Table 7. […] The results indicated better antioxidant activity for DMAT than for DMOHT, indicating the effect of the substituent at the phenyl moiety on the antioxidant activity level of the free ligand. […] On the other hand, the Cu(II) complexes have improved levels of antioxidant activity compared to the free ligands.
Method S3 DPPH Radical Scavenging Activity:
Freshly prepared (0.004 %w/v) methanol solution of 2,2-diphenyl-1-pi crylhydrazyl (DPPH) radical was prepared and stored at 10 °C in dark place. A methanolic solution of the test compound was prepared using the same procedure. A 40 uL aliquot of the methanol solution was added to 3mL of DPPH solution. Absorbance measurements were recorded immediately with a UV-visible spectrophotometer (Milton Roy, Spectronic 1201). The decrease in absorbance at 515 nm was determined continuously, with data being recorded at 1 min intervals until the absorbance stabilized (16 min). The absorbance of the DPPH radical without antioxidant (control) and the reference compound ascorbic acid were also measured.
All the determinations were performed in three replicates and averaged. The percentage inhibition (PI) of the DPPH radical was calculated according to the […]
PI = [{(AC- AT)/ AC} x 100] (1)
Where AC = Absorbance of the control at t = 0 min and AT = absorbance of the sample+DPPH at t = 16 min. The 50% inhibitory concentration (IC50), the concentration required t o inhibit DPPH radical by 50%, was estimated from graphic plots of the dose respons e curve.

[2] = system: lung carcinoma A-549 cell line; assay: Anticancer activity, MTT viability assay; format: cell-based; settings: for SI = CC50/IC50: CC50 (MRC-5) / IC50 (A-549); for IC50: A-549 cells, 24 h, MTT; for Inhibitory % / Viability %: Table S9
Experimental: The studied compounds were examined for their anticancer activity against the lung carcinoma A-549 cell line.
(§1) Method S4 Evaluation of Cytotoxic activity
(§2) The cells were propagated in Dulbecco’s modified Eagle’s medium (DMEM) supplemented with 10% heat-inactivated fetal bovine serum, 1 % L-glutamine, HEPES buffer and 50µg/mL Gentamycin. All cells were maintained at 37 °C in a humidified atmosphere with 5% CO2 and were subcultured tw o times a week.
(§3) Cytotoxicity evaluation using viability assay
(§4) For cytotoxicity assay, the cells were seeded in 96-well plate at a cell concentration of 1×10^4 cells per well in 100µl of growth medium. Fresh medium containing different concentrations of the test sample was added after 24 h of seeding. Serial two-fold dilutions of the tested chemical compound were added to confluent cell monolayers dispensed into 96-well, flat-bottomed microtiter plates (Falcon, NJ, USA) using a multichannel pipette. The microtiter plates were incubated at 37 °C in a humidified incubator with 5% CO2 for a period of 24 h. Three wells were used for each concentration of the test sample. Control cells were incubated without test sample and with or without DMSO. The little percentage of DMSO present in the […]
(§5) cells for at 37°C, for 24 h, the viabl e cells yield was determined by the MTT test.
(§6) Briefly, the media was removed from the 96 well plate and replaced with 100 µL of fresh culture DMEM m edium without phenol red then 10 µL of the 12 mM MTT stock solution (5 mg of MTT in 1 mL of PBS) to each well including the untreated controls. The 96 well plates were then incubated at 37°C and 5% CO2 for 4 hours. An 85 µL aliquot of the media was removed from t he wells, and 50 µL of DMSO was added to each well and mixed thoroughly with the pipette and incubated at 37°C for 10 min. Then, the optical density was measured at 590 nm with the microplate reader (SunRise, TECAN, Inc, USA) to determine the number of viable cells and the percentage of viability was calculat ed as [(ODt/ODc)]x100% where ODt i s the mean optical density of wells treated with the tested s ample and ODc is the mean optical density of untreated cells. The relation between surviving cells and drug concentration is plotted to get the survival curve of each tumor cell line after treatment with the specified compound. The 50% inhibitory concentration (IC50), the concentration required to cause t oxic effects in 50% of intact cells, was estimated from graphic plots of the dose response curve for each conc. using Graphpad Prism software (San Diego, […]

[3] = system: normal human lung fibroblast MRC-5 cells; assay: Cytotoxic activity on normal cells, MTT viability assay; format: cell-based; settings: for Inhibitory % / Viability %: Table S14
Experimental: In this regard, the selectivity index (SI) was calculated as the ratio of cytotoxic effect on the normal cell line to the cytotoxic effect on the cancer cell line.
as §1, §2, §3, §4, §5, §6

IC50 (DPPH scavenging) [1]: 17.83 ± 0.65 µg/mL (≈ 44.7 µM)
IC50 ([2]; Homo sapiens, A549): 551 µM
SMILES: CC(=NNc1nc(N2CCOCC2)nc(N2CCOCC2)n1)c1ccccc1N [DMAT, 2-(1-(2-(4,6-dimorpholino-1,3,5-triazin-2-yl)hydrazono)ethyl)aniline]
DPPH Scavenging % ([1]; Conc. 2.5 μg/mL): 20.79%
DPPH Scavenging % ([1]; Conc. 5 μg/mL): 28.65%
DPPH Scavenging % ([1]; Conc. 10 μg/mL): 35.17%
DPPH Scavenging % ([1]; Conc. 20 μg/mL): 54.23%
DPPH Scavenging % ([1]; Conc. 40 μg/mL): 70.89%
DPPH Scavenging % ([1]; Conc. 80 μg/mL): 79.28%
DPPH Scavenging % ([1]; Conc. 160 μg/mL): 86.59%
DPPH Scavenging % ([1]; Conc. 320 μg/mL): 91.37%
DPPH Scavenging % ([1]; Conc. 640 μg/mL): 94.08%
DPPH Scavenging % ([1]; Conc. 1280 μg/mL): 95.31%
SI = CC50/IC50 [2]: 1.30
viability at 2.5 µM ([2]; Homo sapiens, A549, A-549, sample conc. 2.5 µM, Table S5): 100%
inhibition at 2.5 µM ([2]; Homo sapiens, A549, A-549, sample conc. 2.5 µM, Table S5, read-out: Inhibitory %): 0%
viability at 5 µM ([2]; Homo sapiens, A549, A-549, sample conc. 5.0 µM, Table S5): 100%
inhibition at 5 µM ([2]; Homo sapiens, A549, A-549, sample conc. 5.0 µM, Table S5, read-out: Inhibitory %): 0%
viability at 9.8 µM ([2]; Homo sapiens, A549, A-549, sample conc. 9.8 µM, Table S5): 100%
inhibition at 9.8 µM ([2]; Homo sapiens, A549, A-549, sample conc. 9.8 µM, Table S5, read-out: Inhibitory %): 0%
viability at 19.6 µM ([2]; Homo sapiens, A549, A-549, sample conc. 19.6 µM, Table S5): 100%
inhibition at 19.6 µM ([2]; Homo sapiens, A549, A-549, sample conc. 19.6 µM, Table S5, read-out: Inhibitory %): 0%
viability at 39.1 µM ([2]; Homo sapiens, A549, A-549, sample conc. 39.1 µM, Table S5): 100%
inhibition at 39.1 µM ([2]; Homo sapiens, A549, A-549, sample conc. 39.1 µM, Table S5, read-out: Inhibitory %): 0%
viability at 78.4 µM ([2]; Homo sapiens, A549, A-549, sample conc. 78.4 µM, Table S5): 100%
inhibition at 78.4 µM ([2]; Homo sapiens, A549, A-549, sample conc. 78.4 µM, Table S5, read-out: Inhibitory %): 0%
viability at 156.8 µM ([2]; Homo sapiens, A549, A-549, sample conc. 156.8 µM, Table S5): 98%
inhibition at 156.8 µM ([2]; Homo sapiens, A549, A-549, sample conc. 156.8 µM, Table S5, read-out: Inhibitory %): 1.96%
viability at 313.7 µM ([2]; Homo sapiens, A549, A-549, sample conc. 313.7 µM, Table S5): 82.7%
inhibition at 313.7 µM ([2]; Homo sapiens, A549, A-549, sample conc. 313.7 µM, Table S5, read-out: Inhibitory %): 17.3%
viability at 627.4 µM ([2]; Homo sapiens, A549, A-549, sample conc. 627.4 µM, Table S5): 39.6%
inhibition at 627.4 µM ([2]; Homo sapiens, A549, A-549, sample conc. 627.4 µM, Table S5, read-out: Inhibitory %): 60.4%
viability at 1254.8 µM ([2]; Homo sapiens, A549, A-549, sample conc. 1254.8 µM, Table S5): 17.6%
inhibition at 1254.8 µM ([2]; Homo sapiens, A549, A-549, sample conc. 1254.8 µM, Table S5, read-out: Inhibitory %): 82.4%
inhibition at 2.5 µM ([3]; Homo sapiens, MRC5, MRC-5, sample conc. 2.5 µM, Table S10, read-out: Inhibitory %): 0%
inhibition at 5 µM ([3]; Homo sapiens, MRC5, MRC-5, sample conc. 5.0 µM, Table S10, read-out: Inhibitory %): 0%
inhibition at 9.8 µM ([3]; Homo sapiens, MRC5, MRC-5, sample conc. 9.8 µM, Table S10, read-out: Inhibitory %): 0%
inhibition at 19.6 µM ([3]; Homo sapiens, MRC5, MRC-5, sample conc. 19.6 µM, Table S10, read-out: Inhibitory %): 0%
inhibition at 39.1 µM ([3]; Homo sapiens, MRC5, MRC-5, sample conc. 39.1 µM, Table S10, read-out: Inhibitory %): 0%
inhibition at 78.4 µM ([3]; Homo sapiens, MRC5, MRC-5, sample conc. 78.4 µM, Table S10, read-out: Inhibitory %): 0%
inhibition at 156.8 µM ([3]; Homo sapiens, MRC5, MRC-5, sample conc. 156.8 µM, Table S10, read-out: Inhibitory %): 0.15%
inhibition at 313.7 µM ([3]; Homo sapiens, MRC5, MRC-5, sample conc. 313.7 µM, Table S10, read-out: Inhibitory %): 10.7%
inhibition at 627.4 µM ([3]; Homo sapiens, MRC5, MRC-5, sample conc. 627.4 µM, Table S10, read-out: Inhibitory %): 46.1%
inhibition at 1254.8 µM ([3]; Homo sapiens, MRC5, MRC-5, sample conc. 1254.8 µM, Table S10, read-out: Inhibitory %): 73.9%

SMILES: CC(=NNc1nc(N2CCOCC2)nc(N2CCOCC2)n1)c1ccccc1[O-].O=[N+]([O-])[O-].[Cu+2] [Complex 3, [Cu(DMOT)(NO3)]]
DPPH Scavenging % ([1]; Conc. 2.5 μg/mL): 11.46%
DPPH Scavenging % ([1]; Conc. 5 μg/mL): 18.73%
DPPH Scavenging % ([1]; Conc. 10 μg/mL): 32.95%
DPPH Scavenging % ([1]; Conc. 20 μg/mL): 51.32%
DPPH Scavenging % ([1]; Conc. 40 μg/mL): 68.9%
DPPH Scavenging % ([1]; Conc. 80 μg/mL): 81.47%
DPPH Scavenging % ([1]; Conc. 160 μg/mL): 85.92%
DPPH Scavenging % ([1]; Conc. 320 μg/mL): 90.81%
DPPH Scavenging % ([1]; Conc. 640 μg/mL): 94.29%
DPPH Scavenging % ([1]; Conc. 1280 μg/mL): 95.76%
IC50 (DPPH scavenging) [1]: 19.31 ± 0.73 µg/mL
Inhibitory % ([2]; A-549, sample conc. 1.9 µM): 0%
Viability % ([2]; A-549, sample conc. 1.9 µM): 100%
Inhibitory % ([2]; A-549, sample conc. 3.8 µM): 1.37%
Viability % ([2]; A-549, sample conc. 3.8 µM): 98.63%
Inhibitory % ([2]; A-549, sample conc. 7.4 µM): 7.25%
Viability % ([2]; A-549, sample conc. 7.4 µM): 92.75%
Inhibitory % ([2]; A-549, sample conc. 14.9 µM): 19.54%
Viability % ([2]; A-549, sample conc. 14.9 µM): 80.46%
Inhibitory % ([2]; A-549, sample conc. 29.8 µM): 32.81%
Viability % ([2]; A-549, sample conc. 29.8 µM): 67.19%
Inhibitory % ([2]; A-549, sample conc. 59.6 µM): 50.72%
Viability % ([2]; A-549, sample conc. 59.6 µM): 49.28%
Inhibitory % ([2]; A-549, sample conc. 119.3 µM): 63.38%
Viability % ([2]; A-549, sample conc. 119.3 µM): 36.62%
Inhibitory % ([2]; A-549, sample conc. 238.6 µM): 76.06%
Viability % ([2]; A-549, sample conc. 238.6 µM): 23.94%
Inhibitory % ([2]; A-549, sample conc. 477.1 µM): 88.72%
Viability % ([2]; A-549, sample conc. 477.1 µM): 11.28%
Inhibitory % ([2]; A-549, sample conc. 954.2 µM): 95.13%
Viability % ([2]; A-549, sample conc. 954.2 µM): 4.87%
IC50 [2]: 58.3 µM
SI = CC50/IC50 [2]: 2.96
SI = CC50/IC50 ([2]; listed as 3): 2.97
Inhibitory % ([3]; MRC-5, sample conc. 1.9 µM): 0%
Viability % ([3]; MRC-5, sample conc. 1.9 µM): 100%
Inhibitory % ([3]; MRC-5, sample conc. 3.8 µM): 0%
Viability % ([3]; MRC-5, sample conc. 3.8 µM): 100%
Inhibitory % ([3]; MRC-5, sample conc. 7.4 µM): 0%
Viability % ([3]; MRC-5, sample conc. 7.4 µM): 100%
Inhibitory % ([3]; MRC-5, sample conc. 14.9 µM): 1.37%
Viability % ([3]; MRC-5, sample conc. 14.9 µM): 98.63%
Inhibitory % ([3]; MRC-5, sample conc. 29.8 µM): 10.83%
Viability % ([3]; MRC-5, sample conc. 29.8 µM): 89.17%
Inhibitory % ([3]; MRC-5, sample conc. 59.6 µM): 23.08%
Viability % ([3]; MRC-5, sample conc. 59.6 µM): 76.92%
Inhibitory % ([3]; MRC-5, sample conc. 119.3 µM): 42.86%
Viability % ([3]; MRC-5, sample conc. 119.3 µM): 57.14%
Inhibitory % ([3]; MRC-5, sample conc. 238.6 µM): 58.72%
Viability % ([3]; MRC-5, sample conc. 238.6 µM): 41.28%
Inhibitory % ([3]; MRC-5, sample conc. 477.1 µM): 79.35%
Viability % ([3]; MRC-5, sample conc. 477.1 µM): 20.65%
Inhibitory % ([3]; MRC-5, sample conc. 954.2 µM): 92.46%
Viability % ([3]; MRC-5, sample conc. 954.2 µM): 7.54%
CC50 ([3]; MRC-5 cells, 24 h, MTT): 173 µM
